Columns and labels:
MycCap cells = experiment: Cell viability of MycCap cells; format: cell-based; conditions: Mus musculus, Myc-CaP
MYC/Max binding to DNA = MYC/Max binding to DNA (Homo sapiens, UniProt P01106); experiment: Electrophoretic mobility shift assay (EMSA)
Experimental: We also tested our best hit compound Min9 (NUCC-0176234) and newly synthesized analogs for effects of these compounds on MYC/Max binding to DNA in electrophoretic mobility shift assays (EMSAs). (See FIG. 5a and FIG. 5b). We expected the active compounds to impair MYC/Max binding to DNA. Several structural analogs of Min9 were tested over multiple doses for inhibiting MYC-DNA binding and we observed a dose-dependent inhibition. (See FIG. 5c).

[1] = Stability in mouse liver microsomes; format: in vitro ADME; conditions: % remaining of compound after 60 min treatment with mouse liver microsomes
Experimental: In vitro metabolism of NUCC-176242 and NUCC-176248 were tested using mouse liver microsomes and a mouse S9 fraction. (See FIG. 9).

PC12 cells = experiment: Cell viability of PC12 cells; format: cell-based; conditions: Rattus norvegicus, PC-12; Cell viability of PC12 cells
Experimental: PC3 prostate cancer cell line with high Myc level and PC12 pheochromocytoma tumor cell line with non functional Max protein, which is not dependent on Myc-Max complex, were phased from ATCC. Cells were plated in 96 well plate at 1000 cells per well, and Myc inhibitor 361 at various concentrations was added to the cells next day. After 3 days of treatment, fresh medium with 361 were added again, and cell viability was measured by MTS assay at day 5 after the treatment. (See FIG. 11).

Sequence of MYC/Max binding to DNA (P01106 whole entry, species assumed): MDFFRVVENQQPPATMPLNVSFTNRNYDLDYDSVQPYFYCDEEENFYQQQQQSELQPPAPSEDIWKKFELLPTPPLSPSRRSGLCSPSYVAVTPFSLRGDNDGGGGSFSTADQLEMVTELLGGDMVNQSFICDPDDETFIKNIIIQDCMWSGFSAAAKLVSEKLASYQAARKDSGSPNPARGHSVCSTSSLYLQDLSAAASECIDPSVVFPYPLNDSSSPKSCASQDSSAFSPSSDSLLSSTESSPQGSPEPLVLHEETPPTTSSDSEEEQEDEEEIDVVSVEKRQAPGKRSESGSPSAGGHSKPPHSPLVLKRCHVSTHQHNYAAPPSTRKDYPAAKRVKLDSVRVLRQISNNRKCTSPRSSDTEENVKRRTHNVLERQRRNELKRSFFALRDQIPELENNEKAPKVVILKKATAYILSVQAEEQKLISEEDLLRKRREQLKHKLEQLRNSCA

Structure (SMILES) | IC50 (MycCap cells) [µM] | IC50 (MYC/Max binding to DNA) [µM] | MLM % at 60 min [1] [%] | IC50 (PC12 cells) [µM]
CCc1ccc(Oc2c(-c3ccc(OCCc4cccc(C(F)(F)F)c4)cc3O)n[nH]c2C(F)(F)F)cc1 [NUCC-0176245] | 4.1 | – | – | –
COc1ccc(-c2c(-c3ccc(OCc4ccc(Cl)cc4)cc3O)n[nH]c2C(F)(F)F)cc1OC [NUCC-0196283] | 2.3 | – | – | –
CCc1ccc(Oc2c(-c3ccc(OCc4cccc(Cl)c4)cc3O)n[nH]c2C(F)(F)F)cc1 [NUCC-0196295] | 12.2 | – | – | –
COc1ccc(-c2c(-c3ccc(OCc4ccc(Cl)cc4)cc3O)n[nH]c2C(F)(F)F)cc1 [NUCC-0196312] | 4.8 | – | – | –
Oc1cc(OCc2ccc(Cl)cc2)ccc1-c1cc(C(F)(F)F)[nH]n1 [NUCC-0196313] | 4.2 | – | – | –
Cc1ccc(-c2c(OCc3ccc(Cl)cc3)ccc(-c3cc(C(F)(F)F)[nH]n3)c2O)cc1 [NUCC-0196344] | 6.6 | – | – | –
Cn1nc(-c2ccc(OCc3ccc(Cl)cc3)c(-c3ccc(F)cc3)c2O)cc1C(F)(F)F [NUCC-0196348] | 110 | – | – | –
Oc1cc(OCc2ccc(Cl)cc2)ccc1-c1n[nH]cc1-c1cccc(Cl)c1 [NUCC-0196350] | 4.3 | – | – | –
CCc1ccc(Oc2c(-c3ccc(OCc4ccc(Cl)c(Cl)c4)cc3O)n[nH]c2C(F)(F)F)cc1 [NUCC-0196355] | 11.8 | – | – | –
CCc1ccc(Oc2c(-c3ccc(OCCc4ccc(Cl)cc4)cc3O)n[nH]c2C(F)(F)F)cc1 [NUCC-0196357] | 6.9 | – | – | –
Cn1nc(-c2ccc(OCc3ccc(Cl)cc3)c(-c3cc(C(F)(F)F)cc(C(F)(F)F)c3)c2O)cc1C(F)(F)F [NUCC-0196360] | 39.6 | – | – | –
Oc1c(-c2cc(C(F)(F)F)[nH]n2)ccc(OCc2ccc(Cl)cc2)c1-c1cc(C(F)(F)F)cc(C(F)(F)F)c1 [NUCC-0196362] | 4 | 102 | – | –
Oc1cc(OCc2ccc(Cl)cc2)ccc1-c1n[nH]c(C(F)(F)F)c1-c1ccccc1 [NUCC-0198295] | 4.6 | 53.3 | – | –
Oc1cc(OCc2ccc(Cl)cc2)ccc1-c1n[nH]cc1-c1cc(C(F)(F)F)cc(C(F)(F)F)c1 [NUCC-0198318] | 4.3 | – | – | –
Oc1cc(OCc2ccc(Cl)cc2)ccc1-c1n[nH]cc1-c1ccoc1 [NUCC-0198322] | 6.5 | – | – | –
Cc1cc(C)c(-c2c[nH]nc2-c2ccc(OCc3ccc(Cl)cc3)cc2O)c(C)c1 [NUCC-0198359] | 7.6 | – | – | –
N#Cc1ccc(-c2c(OCc3ccc(Cl)cc3)ccc(-c3cc(C(F)(F)F)[nH]n3)c2O)cc1 [NUCC-0198391] | 3.4 | – | – | –
NC(=O)c1ccc(-c2c(OCc3ccc(Cl)cc3)ccc(-c3cc(C(F)(F)F)[nH]n3)c2O)cc1 [NUCC-0198394] | 7.3 | – | – | –
N#Cc1cccc(-c2c(OCc3ccc(Cl)cc3)ccc(-c3cc(C(F)(F)F)[nH]n3)c2O)c1 [NUCC-0198398] | 4.3 | – | – | –

Structure (SMILES) | IC50 (MycCap cells) [µM] | IC50 (MYC/Max binding to DNA) [µM] | MLM % at 60 min [1] [%] | IC50 (PC12 cells) [µM]
Cn1nc(C(F)(F)F)cc1-c1ccc(OCc2ccc(Cl)cc2)c(-c2cccc(C#N)c2)c1O [NUCC-0198399] | 2.5 | – | 80.3 | –
CCc1ccc(Oc2c(-c3ccc(O)cc3O)n[nH]c2C(F)(F)F)cc1 [NUCC-0198406] | 17.5 | – | – | –
Cn1nc(C(F)(F)F)cc1-c1ccc(OCc2ccc(Cl)cc2)c(Br)c1O [NUCC-0198407] | 7.8 | – | – | –
Cn1nc(-c2ccc(OCc3ccc(Cl)cc3)c(-c3cccc(C#N)c3)c2O)cc1C(N)=O [NUCC-0200558] | 49.3 | – | – | 31
CCc1c(OCc2ccc(Cl)cc2)ccc(-c2cc(C(F)(F)F)n[nH]2)c1O [NUCC-0200739] | 2.2 | – | 46.4 | 19.4
CCOC(=O)c1cc(-c2ccc(OCc3ccc(Cl)cc3)c(-c3cc(C(F)(F)F)cc(C(F)(F)F)c3)c2O)n[nH]1 [NUCC-0200972] | 5.1 | – | 60.3 | 81
O=C(O)c1cc(-c2ccc(OCc3ccc(Cl)cc3)c(-c3cc(C(F)(F)F)cc(C(F)(F)F)c3)c2O)n[nH]1 [NUCC-0200973] | 68.3 | – | – | 29.6
Cn1nc(C(F)(F)F)cc1-c1ccc(OCc2ccc(Cl)cc2)c(-c2cccc(C(F)(F)F)c2)c1O [NUCC-0200974] | 10.2 | – | – | –
Cn1nc(C(F)(F)F)cc1-c1ccc(OCc2ccc(Cl)cc2)cc1C=O [NUCC-0200976] | 3.9 | – | 21.8 | 63.3
Oc1c(-c2cc(C(F)(F)F)n[nH]2)ccc(OCCN2CCCC2)c1-c1cc(C(F)(F)F)cc(C(F)(F)F)c1 [NUCC-0201032] | 1 | – | 30.5 | 11
N#Cc1cncc(-c2c(OCc3ccc(Cl)cc3)ccc(-c3cc(C(F)(F)F)n[nH]3)c2O)c1 [NUCC-0201038] | 6.8 | – | – | 18.3
CCOc1ncc(C(F)(F)F)cc1-c1c(OCc2ccc(Cl)cc2)ccc(-c2cc(C(F)(F)F)n[nH]2)c1O [NUCC-0201039] | 13.6 | – | – | –
COc1ccc(COc2ccc(-c3cc(C(F)(F)F)n[nH]3)c(O)c2-c2cc(C(F)(F)F)cc(C(F)(F)F)c2)cc1 [NUCC-0201041] | 12.6 | – | – | 128
CCCCCCOc1ccc(-c2cc(C(F)(F)F)n[nH]2)c(O)c1-c1cncc(C#N)c1 [NUCC-0201194] | 4.2 | – | – | 59.8
CC(C)CCOc1ccc(-c2cc(C(F)(F)F)n[nH]2)c(O)c1-c1cncc(C#N)c1 [NUCC-0201195] | 14.9 | – | – | 70.3
CCCCCCOc1ccc(-c2cc(C(F)(F)F)n[nH]2)c(O)c1-c1cc(C(F)(F)F)cc(C(F)(F)F)c1 [NUCC-0201196] | 4.5 | – | 66.6 | –
CCCOc1ccc(-c2cc(C(F)(F)F)n[nH]2)c(O)c1-c1cc(C(F)(F)F)cc(C(F)(F)F)c1 [NUCC-0201197] | 3.4 | – | – | 18.6
CC(CCOc1ccc(-c2cc(C(F)(F)F)n[nH]2)c(O)c1-c1cc(C(F)(F)F)cc(C(F)(F)F)c1)C(F)(F)F (stereo not drawn) [NUCC-0201198] | 2.6 | – | – | 8.2
[N-]=[N+]=NCCOCCOCCOCC(=O)Nc1ccc(COc2ccc(-c3cc(C(F)(F)F)n[nH]3)c(O)c2-c2cc(C(F)(F)F)cc(C(F)(F)F)c2)cc1 [NUCC-0201199] | 3 | – | – | 12.7

Structure (SMILES) | IC50 (MycCap cells) [µM] | IC50 (MYC/Max binding to DNA) [µM] | MLM % at 60 min [1] [%] | IC50 (PC12 cells) [µM]
O=C1CCC(N2C(=O)c3cccc(OCc4cn(CCOCCOCCOCC(=O)Nc5ccc(COc6ccc(-c7cc(C(F)(F)F)n[nH]7)c(O)c6-c6cc(C(F)(F)F)cc(C(F)(F)F)c6)cc5)nn4)c3C2=O)C(=O)N1 (stereo not drawn) [NUCC-0201202] | 4 | – | – | 23.1
O=C1CCC(N2C(=O)c3cccc(OCc4cn(CCOCCOCCOCCOCC(=O)Nc5ccc(COc6ccc(-c7cc(C(F)(F)F)n[nH]7)c(O)c6-c6cc(C(F)(F)F)cc(C(F)(F)F)c6)cc5)nn4)c3C2=O)C(=O)N1 (stereo not drawn) [NUCC-0201203] | 32.4 | – | – | –
CCCCOc1ccc(-c2cc(C(F)(F)F)nn2C)c(O)c1-c1cncc(C(F)(F)F)c1 [NUCC-0201204] | 23 | – | – | –
CCCCCCOc1ccc(-c2cc(C(F)(F)F)nn2C)c(O)c1-c1cncc(C(F)(F)F)c1 [NUCC-0201205] | 9.5 | – | – | 36.3
CC(C)CCOc1ccc(-c2cc(C(F)(F)F)nn2C)c(O)c1-c1cncc(C(F)(F)F)c1 [NUCC-0201206] | 5 | – | – | –
CCCCCCOc1ccc(-c2cc(C(F)(F)F)nn2C)c(O)c1-c1cncc(C#N)c1 [NUCC-0201207] | 5.7 | – | 52.7 | –
CCCCOc1ccc(-c2cc(C(F)(F)F)n(C)n2)c(O)c1-c1cncc(C(F)(F)F)c1 [NUCC-0201209] | 4.4 | – | 10.3 | –
CCCCCCOc1ccc(-c2cc(C(F)(F)F)n(C)n2)c(O)c1-c1cncc(C#N)c1 [NUCC-0201212] | 23.7 | – | – | 30.8
C#CCOc1ccc(COc2ccc(-c3cc(C(F)(F)F)n[nH]3)c(O)c2-c2cc(C(F)(F)F)cc(C(F)(F)F)c2)cc1 [NUCC-0201219] | 9.5 | – | – | –
COc1ccc(-c2cc(C(F)(F)F)[nH]n2)c(O)c1-c1cc(C(F)(F)F)cc(C(F)(F)F)c1 [NUCC-0201220] | 4.9 | – | – | 91.6
COc1ccc(-c2cc(C(F)(F)F)n(C)n2)c(O)c1-c1cc(C(F)(F)F)cc(C(F)(F)F)c1 [NUCC-0201221] | 1.2 | – | – | –
Oc1c(-c2cc(C(F)(F)F)[nH]n2)ccc(Oc2ccc(Cl)cc2)c1-c1cc(C(F)(F)F)cc(C(F)(F)F)c1 [NUCC-0201223] | 5.1 | – | 75.8 | 40.6
CCCCOc1ccc(-c2cc(C(F)(F)F)n[nH]2)c(O)c1-c1ccc(Cl)c(C(F)(F)F)c1 [NUCC-0201225] | 19 | – | – | 82.6
CCCCOc1ccc(-c2cc(C(F)(F)F)n(C)n2)c(O)c1-c1ccc(Cl)c(C(F)(F)F)c1 [NUCC-0201227] | 4.5 | – | – | 1
Cn1nc(C(F)(F)F)cc1-c1ccc(OCc2ccc(Cl)cc2)c(-c2cncc(C(F)(F)F)c2)c1O [NUCC-0201630] | 15.4 | – | – | 42.3
Cn1nc(-c2ccc(OCc3ccc(Cl)cc3)c(-c3cncc(C#N)c3)c2O)cc1C(F)(F)F [NUCC-0201633] | 4.6 | – | – | 27.3
Cn1nc(-c2ccc(OCCCNC(=O)OC(C)(C)C)c(-c3cncc(C(F)(F)F)c3)c2O)cc1C(F)(F)F [NUCC-0201656] | 5.5 | – | – | 18
C#CCC(N=[N+]=[N-])C(=O)Nc1ccc(COc2ccc(-c3cc(C(F)(F)F)n(C)n3)c(O)c2-c2cncc(C(F)(F)F)c2)cc1 (stereo not drawn) [NUCC-0201699] | 24.3 | – | – | –
